These results are taken from patent US20110021517A1, “ANTITUMOR COMBINATION COMPRISING A MORPHOLINYL ANTHRACYCLINE DERIVATIVE AND DEMETHYLATING AGENTS” (NERVIANO MEDICAL SCIENCES S.R.L., priority 2008, published 2011).

pIC50: −log10 of the molar value. Where two headings read alike, the source gives them in different places.

One experiment has as its system L1210 cells. In words: Cytotoxic effect of nemorubicin on L1210 cells with or without pre-treatment with 5-aza-2′-deoxycytidine (cell counting, Coulter Counter). In kind it is cell-based, murine. The settings on record: for pIC50: 24 h nemorubicin treatment, read-out: IC50 (dose inhibiting 50% cell growth). The method, then: (§1) The effect of 5-aza-2′-deoxycytidine on the cytotoxic activity of morpholinyl anthracycline derivative (nemorubicin) was tested on a murine leukaemia cell line (L1210 cells). Cells were grown in RPMI 1640 medium supplemented with 10% foetal calf serum. Exponentially growing cells were seeded and exposed to 5-aza-2′-deoxycytidine immediately after seeding for 6 days, so as to allow efficient demethylation of the CpG islands. […] Six days following 5-aza-2′-deoxycytidine treatment, cells were diluted and treated with different concentrations of nemorubicin (50, 100, 200 and 500 nM) in comparison with cells not pretreated with the demethylating agent 5-aza-2′-deoxycytidine. In vitro drug sensitivity was determined by counting surviving cells by a Coulter Counter apparatus. The antiproliferative activity of the drug was evaluated after 24 h treatment and calculated from dose-response curves and expressed as dose inhibiting 50% cell growth (IC50). IC50 values were calculated from two-three independent experiments each consisting of at least three replicates. Combination indices (CI) were calculated using a computer program for multiple drug effect analysis based on the equation of Chou-Talalay (Adv Enzyme Regul 1984; 22:27-55) for mutually non-exclusive drugs. CI values <0.3-0.8 are indicative of synergism, 0.8-1.2 are indicative of additivity, […] are indicative of antagonism.

The next experiment has as its system L1210/MMRDX cells. Briefly: Cytotoxic effect of nemorubicin on nemorubicin-resistant L1210/MMRDX cells with or without pre-treatment with 5-aza-2′-deoxycytidine. The settings on record: for pIC50: 24 h nemorubicin treatment, read-out: IC50 (dose inhibiting 50% cell growth). Format: cell-based, murine. The method, then:
as §1
The effect of 5-aza-2′-deoxycytidine on the cytotoxic activity of nemorubicin was tested in comparison on L1210 cells and on the strain resistant to nemorubicin (L1210/MMRDX) (Geroni C. et al, Br J Cancer 9:315-19, 1994). Cells were grown in RPMI 1640 medium supplemented with 10% foetal calf serum. Exponentially growing cells were seeded and exposed to 5-aza-2′-deoxycytidine and nemorubicin as reported here above. In vitro drug sensitivity was determined by counting surviving cells by a Coulter Counter apparatus. The antiproliferative activity of the drug was evaluated after 24 h treatment and calculated from dose-response curves and expressed as IC50. IC50 values were calculated from two-three independent experiments each consisting of at least three replicates. Combination indices (CI) were calculated as described above.

For the substance “(8S-cis, 2″S)-7,8,9,10-tetrahydro-6,8,11-trihydroxy-8-(hydroxyacetyl)-1-methoxy-10-{[2,3,6-trideoxy-3-(2-methoxy-4-morpholinyl)-α-L-lyxo-hexopyranosyl]oxy}-5,12-naphthacenedione [nemorubicin]”, the negative logarithm of the IC50 (pIC50) (in general, the IC50 on a negative log10 scale, so that one unit is a factor of ten) in the experiment on L1210 cells (L1210 cells pretreated with 5-aza-2′-deoxycytidine for 6 days) was 6.89; in the experiment with L1210 cells (L1210 cells untreated (no 5-aza-2′-deoxycytidine pretreatment)), 6.68; in the experiment on L1210/MMRDX cells (L1210/MMRDX cells pretreated with 5-aza-2′-deoxycytidine), 6.85; in the experiment on L1210/MMRDX cells (L1210/MMRDX cells untreated (no 5-aza-2′-deoxycytidine pretreatment)) it was 6.32. Moreover, the “Combination effect based on CI value (in words)” value was “synergistic effect” with L1210 cells (combination of nemorubicin and 5-aza-2′-deoxycytidine, L1210 cells); “strong synergistic effect” in the experiment on L1210/MMRDX cells (combination of nemorubicin and 5-aza-2′-deoxycytidine, L1210/MMRDX cells). The “CI (combination index, Chou-Talalay)” value in the experiment with L1210 cells (nemorubicin combined with 5-aza-2′-deoxycytidine pretreatment, L1210 cells) came out at 0.14; in the experiment with L1210/MMRDX cells (nemorubicin combined with 5-aza-2′-deoxycytidine pretreatment, L1210/MMRDX cells), 0.06.
